Measured values published in ChEMBL document CHEMBL1147922, “Tetrahydroindazole inhibitors of bacterial type II topoisomerases. Part 2: SAR development and potency against multidrug-resistant strains” (Bioorg Med Chem Lett, 2007).
≈ marks a conversion by molar mass, not a printed value.

Columns and labels:
[1] = Inhibition of bacterial DNA gyrase
Staphylococcus aureus [2] = test: Antibacterial activity against ciprofloxacin resistant methicillin resistant Staphylococcus aureus OC4222; type: functional
Staphylococcus aureus [3] = test: Antibacterial activity against ciprofloxacin resistant methicillin resistant Staphylococcus aureus OC5273; type: functional
Escherichia coli = test: Antibacterial activity against Escherichia coli KL16; type: functional
Staphylococcus aureus [4] = test: Antibacterial activity against ciprofloxacin resistant methicillin resistant Staphylococcus aureus OC3946; type: functional
Staphylococcus aureus [5] = test: Antibacterial activity against ciprofloxacin resistant methicillin resistant Staphylococcus aureus OC4159; type: functional
[6] = Inhibition of bacterial DNA topoisomerase 4
Staphylococcus aureus [7] = test: Antibacterial activity against Staphylococcus aureus ATCC 13709; type: functional
Staphylococcus aureus [8] = test: Antibacterial activity against quinolone susceptible methicillin resistant Staphylococcus aureus OC2878; type: functional
Streptococcus pneumoniae = test: Antibacterial activity against Streptococcus pneumoniae ATCC 49619; type: functional

SMILES | IC50 [1] | MIC (Staphylococcus aureus [2]) | MIC (Staphylococcus aureus [3]) | MIC (Escherichia coli) | MIC (Staphylococcus aureus [4]) | MIC (Staphylococcus aureus [5]) | IC50 [6] | MIC (Staphylococcus aureus [7]) | MIC (Staphylococcus aureus [8]) | MIC (Streptococcus pneumoniae)
COc1ccc2nccc(-n3cc4c(n3)CCC(NC(=O)c3ccc5c(c3)NC(=O)CS5)C4)c2c1 (stereo not given) | 0.12 µg/mL (≈ 0.247 µM) | 0.062 µg/mL (≈ 0.128 µM) | 0.25 µg/mL (≈ 0.515 µM) | 4 µg/mL (≈ 8.24 µM) | 0.015 µg/mL (≈ 0.0309 µM) | 0.031 µg/mL (≈ 0.0638 µM) | 0.125 µg/mL (≈ 0.257 µM) | 0.25 µg/mL (≈ 0.515 µM) | 0.125 µg/mL (≈ 0.257 µM) | 2 µg/mL (≈ 4.12 µM)
COc1ccc2nccc(-n3cc4c(n3)CCC(NC(=O)c3ccc5c(c3)NC(=O)CS5)C4)c2n1 (stereo not given) | 0.25 µg/mL (≈ 0.514 µM) | 0.5 µg/mL (≈ 1.03 µM) | 0.062 µg/mL (≈ 0.127 µM) | > 128 µg/mL | 0.007 µg/mL (≈ 0.0144 µM) | 0.5 µg/mL (≈ 1.03 µM) | 0.25 µg/mL (≈ 0.514 µM) | 0.06 µg/mL (≈ 0.123 µM) | 0.031 µg/mL (≈ 0.0637 µM) | 4 µg/mL (≈ 8.22 µM)
O=C1CSc2ccc(C(=O)NC3CCc4nn(-c5cccc6cccnc56)cc4C3)cc2N1 (stereo not given) | 2 µg/mL (≈ 4.39 µM) | 4 µg/mL (≈ 8.78 µM) | 0.5 µg/mL (≈ 1.1 µM) | 16 µg/mL (≈ 35.1 µM) | 0.125 µg/mL (≈ 0.274 µM) | 4 µg/mL (≈ 8.78 µM) | 0.125 µg/mL (≈ 0.274 µM) | 0.25 µg/mL (≈ 0.549 µM) | 0.25 µg/mL (≈ 0.549 µM) | 4 µg/mL (≈ 8.78 µM)
COc1ccc2nccc(-n3cc4c(n3)CCC(NCc3ccc5c(c3)OCCO5)C4)c2c1 (stereo not given) | 2 µg/mL (≈ 4.52 µM) | 16 µg/mL (≈ 36.2 µM) | 1 µg/mL (≈ 2.26 µM) | 128 µg/mL (≈ 289 µM) | 0.5 µg/mL (≈ 1.13 µM) | 16 µg/mL (≈ 36.2 µM) | 0.06 µg/mL (≈ 0.136 µM) | 0.5 µg/mL (≈ 1.13 µM) | 0.5 µg/mL (≈ 1.13 µM) | 1 µg/mL (≈ 2.26 µM)
